Measured values taken from patent publication US6310095A, “Inhibitors of protein isoprenyl transferases” (University of Pittsburgh, priority 1998, dated 2001).
Counter-ions that a name gives are not always drawn.

Biological target: T1, protein farnesyltransferase (Rattus norvegicus, UniProt Q02293+Q04631)
T1 construct: Rat brain protein farnesyltransferase activity is measured; from tissue; host or cells: rat brain; purified according to Reiss et al., Cell 62:81-88 (1990), steps one through three
Test: in vitro inhibition of protein farnesyltransferase (scintillation proximity assay, biotin-K Ras B fragment)
Type: biochemical
Conditions: at 1 × 10^-5 M
Source text: The ability of the compounds of the invention to inhibit protein farnesyltransferase or protein geranylgeranyltransferase can be measured according to the method of Moores, et al., J. Biol. Chem. 266: 14603 (1991) or the method of Vogt, et al., J. Biol. Chem. 270:660-664 (1995). In addition, procedures for determination of the inhibition of farnesylation of the oncogene protein Ras are described by Goldstein, et al., J. Biol. Chem., 266:15575-15578 (1991) and by Singh in U.S. Pat. No. 5,245,061.
In addition, in vitro inhibition of protein farnesyltransferase may be measured by the following procedure. Rat brain protein farnesyltransferase activity is measured using an Amersham Life Science commercial scintillation proximity assay kit and substituting a biotin-K Ras B fragment (biotin-[…]CO2 H), 0.1 mM final concentration, for the biotin-lamin substrate provided by Amersham. The enzyme is purified according to Reiss, Y., et al., Cell, 62: 81-88 (1990), utilizing steps one through three.
The % inhibition of protein farnesyltransferase was determined for representative compounds of the invention.

SMILES | inhibition at 10 µM [%]
CSCC[C@H](NC(=O)c1ccc(CNc2nnc(C)s2)cc1-c1ccccc1)C(=O)O [Example 371] | 66
CSCC[C@H](NC(=O)c1ccc(CNc2ccc(O)cc2)cc1-c1ccccc1)C(=O)O [Example 689] | 73
CSCC[C@H](NC(=O)c1ccc(CNc2cc[nH]n2)cc1-c1ccccc1)C(=O)O [Example 370] | 86
CSCC[C@H](NC(=O)c1ccc(CNc2cccc(CO)c2)cc1-c1ccccc1)C(=O)O [Example 680] | 58
CSCC[C@H](NC(=O)c1ccc(CNc2ccc(-c3ccccc3)cc2)cc1-c1ccccc1)C(=O)O [Example 700] | 68
CSCC[C@H](NC(=O)c1ccc(CNc2cc(C)ns2)cc1-c1ccccc1)C(=O)O [Example 373] | 76
CSCC[C@H](NC(=O)c1ccc(CNC(CO)Cc2ccccc2)cc1-c1ccccc1)C(=O)O (some centres unmarked) [Example 714] | 56

Same assay, conditions: at 1 × 10^-6 M

SMILES | % inhibition of farnesyltransferase [%]
CSCC[C@H](NC(=O)c1ccc(COCCc2ccccc2)cc1-c1ccccc1C)C(=O)[O-].[Li+] [Example 587] | 97
Cc1ccccc1-c1cc(CN(C2CC2)C2(Cc3ccccc3)CCCC2)ccc1C(=O)N[C@@H](CCS(C)(=O)=O)C(=O)O [Example 345] | 91
COc1ccc(CCNS(=O)(=O)c2ccc(C(=O)N[C@@H](CCSC)C(=O)O)c(-c3ccccc3C)c2)cc1OC [Example 776] | 36
CSCC[C@H](NC(=O)c1ccc(CN(C(C)C)C2(Cc3ccccc3)CCCC2)cc1-c1ccccc1C)C(=O)O [Example 343] | 72
CSCC[C@H](NC(=O)c1ccc(CN(C(C)C)C2(Cc3ccccc3)CC2)cc1-c1ccccc1C)C(=O)O [Example 325] | 99
CCOC[C@H](CC1CCCCC1)OCc1ccc(C(=O)N[C@@H](CCSC)C(=O)O)c(-c2ccccc2C)c1 [Example 525] | 99
CSCC[C@H](NC(=O)c1ccc(C=CCc2ccccc2)cc1-c1ccccc1C)C(=O)O [Example 469] | 92
CSCC[C@H](NC(=O)c1ccc(COCc2cccs2)cc1-c1ccccc1C)C(=O)[O-].[Li+] [Example 273] | 96
CSCC[C@H](NC(=O)c1ccc(OCCCCOc2ccccc2)cc1-c1ccccc1C)C(=O)O [Example 568] | 93
CSCC[C@H](NC(=O)c1ccc(CN(C2CC2)C2(Cc3ccccc3)CCC2)cc1-c1ccccc1C)C(=O)O [Example 329] | 98
CSCC[C@H](NC(=O)c1ccc(COCc2ccoc2)cc1-c1ccccc1C)C(=O)O [Example 530] | 94
CSCC[C@H](NC(=O)c1ccc(N2CC(=O)NNC2=O)cc1-c1ccccc1)C(=O)O [Example 224] | 41
CSCC[C@H](NC(=O)c1ccc(CN(C)C(CC2CCCCC2)C(=O)N2CCCCC2)cc1-c1ccccc1C)C(=O)O (some centres unmarked) [Example 301] | 98

Same assay, conditions: at 1 × 10^-6 M; read-out: % inhibition of farnesyltransferase

SMILES | inhibition at 1 µM [%]
CSCC[C@H](NC(=O)c1ccc(CN(CCCc2ccccc2)c2ccccc2)cc1-c1ccccc1C)C(=O)O [Example 508] | 95
CCS(=O)(=O)C[C@H](CC1CCCCC1)NCc1ccc(C(=O)N[C@@H](CCSC)C(=O)O)c(-c2ccccc2C)c1 [Example 620, N-[4-(3-cyclohexyl-1-ethylsulfonylpropan-2-ylaminomethyl)-2-(2-methylphenyl)benzoyl]methionine Lithium Salt] | 98
CSCC[C@H](NC(=O)c1ccc(NC(=O)C[C@H]2C[C@@H](C(C)=O)C2(C)C)cc1-c1ccccc1)C(=O)O [Example 751] | 32
CSCC[C@H](NC(=O)c1ccc(CNc2ccc(OC(F)(F)F)cc2)cc1-c1ccccc1)C(=O)O [Example 691] | 34
CSCC[C@H](NC(=O)c1ccc(CNCCSc2ccccc2)cc1-c1ccccc1)C(=O)O [Example 667] | 83
CSCC[C@H](NC(=O)c1ccc(CNCCN2CCCC2)cc1-c1ccccc1)C(=O)O [Example 641] | 34
CSCC[C@H](NC(=O)c1ccc(NC(=O)C2CCC(=O)N2)cc1-c1ccccc1)C(=O)O (some centres unmarked) [Example 202, [4-(2-pyrrolidinone-5-ylcarbonylamino)-2-phenylbenzoyl]methionine] | 31

Same assay, conditions: at 1 × 10^-7 M

SMILES | % inhibition of farnesyltransferase [%]
CSCC[C@H](NC(=O)c1ccc(COC(Cc2ccccc2)c2ccco2)cc1-c1ccccc1C)C(=O)[O-].[Li+] (some centres unmarked) [Example 534] | 84
COc1ccc(-c2ccc(COCc3ccc(C(=O)N[C@@H](CCSC)C(=O)[O-])c(-c4ccccc4C)c3)o2)cc1.[Li+] [Example 446] | 91
CSCC[C@H](NC(=O)c1ccc(COCc2ccc(Cl)cc2)cc1-c1ccccc1C)C(=O)[O-].[Li+] [Example 933] | 91
CSCC[C@H](NC(=O)c1ccc(COCc2ccc(C)cc2)cc1-c1ccccc1C)C(=O)[O-].[Li+] [Example 579] | 92
CSCC[C@H](NC(=O)c1ccc(CCc2ccc(C3CCCCC3)cc2)cc1-c1ccccc1C)C(=O)[O-].[Li+] [Example 461] | 93
CSCC[C@H](NC(=O)c1ccc(COCc2cccc(N(C)C)c2)cc1-c1ccccc1C)C(=O)O [Example 941] | 90
CSCC[C@H](NC(=O)c1ccc(COCc2ccc(-c3cccc(C(F)(F)F)c3)o2)cc1-c1ccccc1C)C(=O)[O-].[Li+] [Example 441] | 91
CSCC[C@H](NC(=O)c1ccc(COCc2cc3ccccc3o2)cc1-c1ccccc1C)C(=O)[O-].[Li+] [Example 533] | 91
CSCC[C@H](NC(=O)c1ccc(/C=C/c2ccc(Oc3cccc([N+](=O)[O-])c3)cc2)cc1-c1ccccc1C)C(=O)O [Example 861] | 65
CSCC[C@H](NC(=O)c1ccc(CSc2nc3ccccc3[nH]2)cc1-c1ccccc1C)C(=O)O [Example 732] | 84
CSCC[C@H](NC(=O)c1ccc(COC(Cc2ccccc2)Cc2ccccc2)cc1-c1ccccc1C)C(=O)[O-].[Li+] [Example 522] | 93
CSCC[C@H](NC(=O)c1ccc(COCc2ccc(-c3ccc(Cl)cc3)o2)cc1-c1ccccc1C)C(=O)NS(C)(=O)=O [Example 818] | 78
CSCC[C@H](NC(=O)c1ccc(CCc2ccc(Oc3ccccc3N)cc2)cc1-c1ccccc1C)C(=O)O [Example 857] | 92
CCCC(CCC)NOCc1ccc(C(=O)N[C@@H](CCSC)C(=O)O)c(-c2ccccc2C)c1 [Example 929] | 81

Same assay, conditions: at 1 × 10^-7 M; read-out: % inhibition of farnesyltransferase

SMILES | inhibition at 0.1 µM [%]
CSCC[C@H](NC(=O)c1ccc(NC[C@@H]2C[C@H](S)CN2)cc1-c1ccccc1)C(=O)O [Example 959, N-[4-((2S,4S)-4-thiolpyrrolidin-2-ylmethylamino)-2-phenylbenzoyl]methionine] | > 50
CCCCN(CCCC)C(=O)CNCc1ccc(C(=O)N[C@@H](CCSC)C(=O)O)c(-c2ccccc2C)c1 [Example 912, N-[4-(N-(N,N-dibutylacetamido)aminomethyl)-2-(2-methylphenyl)benzoyl]methionine] | 85
CSCC[C@H](NC(=O)c1ccc(CNc2ccc(Oc3ccccc3)cc2)cc1-c1ccccc1C)C(=O)O [Example 864, N-[4-N-(4-phenoxyphenyl)aminomethyl-2-(2-methylphenyl)benzoyl]methionine] | 84
CSCC[C@H](NC(=O)c1ccc(NC(=O)CN)cc1-c1ccccc1)C(=O)O [Example 748] | 56
CSCC[C@H](NC(=O)c1ccc(CN[C@@H](CO)CC2CCCCC2)cc1-c1ccccc1C)C(=O)O [Example 618, N-[4-(3-cyclohexylpropan-1-ol-2-ylaminomethyl)-2-(2-methylphenyl)benzoyl]methionine Trifluoroacetate Salt] | 89
CCCCS(=O)(=O)N(Cc1ccc(C(=O)N[C@@H](CCSC)C(=O)O)c(-c2ccccc2C)c1)[C@H](CSCC)CC1CCCCC1 [Example 950, N-[4-N-Butanesulfoyl-N-(3-Cyclohexyl-1-ethylthiopropan-2-yl)aminomethyl-2-(2-methylphenyl)-benzoyl]methionine] | 71
CCCCN(CCCC)C(=O)CN(C)Cc1ccc(C(=O)N[C@@H](CCSC)C(=O)O)c(-c2ccccc2C)c1 [Example 913, N-[4-(N-(N,N-dibutylacetamido)-N-methylaminomethyl)-2-(2-methylphenyl)benzoyl]methionine] | 89

Same assay, conditions: at 1 × 10^-8 M

SMILES | % inhibition of farnesyltransferase [%]
CSCC[C@H](NC(=O)c1ccc(COCc2cnc(-c3cccc(F)c3)s2)cc1-c1ccccc1C)C(=O)[O-].[Li+] [Example 898] | 82

Same assay, conditions: at 1 × 10^-8 M; read-out: % inhibition of farnesyltransferase

SMILES | inhibition at 0.01 µM [%]
CSCC[C@H](NC(=O)c1ccc(CN(CCC2CCCCC2)S(=O)(=O)c2ccccc2)cc1-c1ccccc1C)C(=O)O [Example 612, N-[4-(N-benzenenesulfonyl-N-(2-cyclohexylethyl)aminomethyl)-2-(2-methylphenyl)benzoyl]methionine Lithium Salt] | 96
